IC50 data for 32 compounds are collected here from PubChem BioAssay AID588780 (Sanford-Burnham Center for Chemical Genomics, 2011).

The source made the active and inactive calls.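 The calls were made as follows: active = compounds whose fitted half-maximal concentration in the cell-protection dose series is at or below a set limit; inactive = the rest.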 Where only a bound is given, the exact number is not on record here.

The test system of the assay is H9c2 cardiomyocytes, 2-deoxyglucose stress, ATP luminescence, 2 h. The assay can be described thus: H9c2 cell survival under 2-deoxyglucose stress – uHTS hits, dose response (AID 588780).
For `Fc1ccc(-n2cc(-c3ccccc3)c3c(N4CCOCC4)ncnc32)cc1`, the IC50 (in general, the point on the concentration scale where inhibition reaches its midpoint) is > 79 µM (inactive).
Consider `O=c1c(O)c(-c2cccs2)oc2ccc(Cl)cc12`, for which the concentration for half-maximal inhibition (IC50) was 20.6 µM.
With `O=C(CCC(=O)N1CCN(C2CCCCC2)CC1)Nc1nnc(C(F)(F)F)s1`, the IC50 is > 79 µM (inactive).
As to `COc1ccc(OCC(=O)NCc2n[nH]c(=O)c3ccccc23)cc1`, the IC50 is > 79 µM (inactive).
The figure for `CN(C)CCNc1ccc(-c2n[nH]c(=O)c3ccccc23)cc1[N+](=O)[O-]` is > 79 µM (inactive).
For `CCOC(=O)c1cccc(C2=C(CNC(=O)c3cccnc3)[C@H]3CC[C@@H](C2)N3Cc2ccccc2)c1` the value was > 79 µM (inactive).
The figure for `CCN(CC)c1ccc(C2C(C(=O)OC(C)C)C(=O)CC(C)(O)C2C(=O)OC(C)C)cc1` (configuration not stated) is 18.2 µM; for `CC(C)(C)NC(=O)COC(=O)c1c2c(nc3ccccc13)CCC2` it is 15.1 µM; for `CCN(CC)S(=O)(=O)c1cccc(C(=O)N/N=C/c2ccccn2)c1` it is > 79 µM (inactive).
On to `C[C@H](CO)N1C[C@H](C)[C@@H](CN(C)S(=O)(=O)c2ccc(F)cc2)Oc2ccc(NC(=O)Nc3ccc4c(c3)OCO4)cc2C1=O`, for which the IC50 is 36 µM (inactive).
The figure for `O=C(CCCSc1nc2sc3c(c2c(=O)[nH]1)CCC3)NCCO` is > 79 µM (inactive); for `COc1cc(/C=C/c2nc(-c3ccccc3O)n[nH]2)cc(OC)c1OC` it is > 79 µM (inactive).
For `O=C(Nc1nc(-c2ccc(S(=O)(=O)N3CCCC3)cc2)cs1)C1COc2ccccc2O1` (configuration not stated) the value was > 79 µM (inactive); for `COC(=O)c1ccc(C(C(=O)NCc2ccccc2)N(Cc2cccs2)C(=O)c2cnccn2)cc1` (configuration not stated), 14.7 µM.
Turning to `CC(C)c1cc(N2CCN(C(=O)c3ccco3)CC2)n2c(nc3ccccc32)c1C#N`, the half-inhibitory concentration (IC50) is 28.5 µM.
The figure for `COc1cc(-c2cc(NC(C)=O)c3ncc(-c4ccc(C(C)=O)cc4)n3c2)cc(OC)c1OC` is > 79 µM (inactive); for `Cn1c(C(=O)Nc2ccc3c(c2)OCCO3)cc2c(=O)n(C)c3ccccc3c21` it is > 79 µM (inactive).
For `Cn1ncc(Cl)c1C(=O)N/N=C/c1ccccn1` the value was > 79 µM (inactive); for `CCOc1ccc2ccccc2c1C(=O)N[C@@H]1C(=O)N2[C@@H]1SC(C)(C)[C@@H]2C(=O)O`, 47.1 µM (inactive).
Consider `CCN(CC)S(=O)(=O)c1ccc(N2CCOCC2)c(NC(=O)c2cc(-c3ccccn3)nc3ccccc23)c1`, for which the IC50 was > 79 µM (inactive).
The figure for `O=C(COc1ccccc1[N+](=O)[O-])Nc1ccc(N2CCN(C(=O)c3cccs3)CC2)cc1` is 8.51 µM.
On to `CC(=O)c1ccc(N2CCN(C(=O)c3cc(-c4cccnc4)nc4ccc(Br)cc34)CC2)cc1`, for which the IC50 was 11 µM.
The figure for `CC(C)(C)OC(=O)CNC(=O)c1[nH]cnc1C(=O)Nc1ccc(CNC(=O)OC(C)(C)C)cc1` is > 79 µM (inactive); for `Cc1ccc(-c2n[nH]c(=O)c3ccccc23)cc1S(=O)(=O)NCC1CCCO1` (configuration not stated) it is > 79 µM (inactive); for `CC(C)(C)c1ccc(OCCCC(=O)NNC(=O)c2ccccc2O)cc1` it is > 79 µM (inactive).
As to `COc1ccc(-c2csc(NC(=O)CCCc3nc4ccccc4c(=O)[nH]3)n2)cc1OC`, the 50% inhibitory concentration (IC50) is 25.3 µM.
The figure for `CCOC(=O)C1=C(COC(=O)/C=C/c2ccc(F)cc2)NC(=O)NC1C` (configuration not stated) is 16.2 µM; for `COCCn1nnnc1C(C(C)C)N(Cc1cccnc1)Cc1cc2cc(OC)ccc2[nH]c1=O` (configuration not stated) it is > 79 µM (inactive).
Take `CC(C)C(=O)N1CCN(c2ccc(NC(=O)COc3ccccc3[N+](=O)[O-])cc2)CC1`: the IC50 is > 79 µM (inactive).
The figure for `O=C(COc1ccc(F)cc1Cl)Nc1nc(-c2ccccn2)cs1` is > 79 µM (inactive); for `NS(=O)(=O)c1ccc(N=Cc2c(O)n(-c3nccs3)c(=O)c3ccccc23)cc1` it is > 79 µM (inactive); for `O=C(NCC(=O)N(Cc1cccs1)C(C(=O)NC1CCCC1)c1ccco1)c1cccs1` (configuration not stated) it is 13.3 µM.
